Source: patent publication US12559750B2, “Methods and compositions for treatment of polycystic kidney disease” (Regulus Therapeutics Inc., priority 2021, dated 2026)

What was measured:
AMPA-R (GluA1/GluA4) = target: T1, AMPA-R (GluA1/GluA4) (Homo sapiens, UniProt P42261+P48058); test: Manual whole-cell patch clamp, ChanTest GluA1/GluA4 EZCells; type: cell-based
T1 construct: host or cells: ChanTest GluA1/GluA4 EZCells
Description: To evaluate functional antagonism of anti-miR-17 oligonucleotides towards the AMPA-R, certain oligonucleotides were tested using the manual whole-cell patch clamp technique, which records membrane currents as a measure of AMPA-R activity.
Manual whole-cell patch clamp studies were performed by Metrion Biosciences (Cambridge, UK). Whole-cell voltage clamp experiments were performed at room temperature (18-21° C.) using an EPC10 patch clamp amplifier using Patchmaster software (HEKA Elektronik). Glass patch pipettes were fabricated from borosilicate glass capillaries (Harvard Apparatus) to resistances between 1.4 and 2.5 MΩ. Membrane currents were recorded using the whole-cell patch clamp technique. ChanTest® GluA1/GluA4 EZCells were clamped at a holding potential of −80 mV and membrane currents elicited by 10 μM(S)-AMPA delivered using a VC38 perfusion system (ALA Scientific Instruments). The […] current amplitude values were measured with each application of 10 μM(S)-AMPA. The fractional change of current amplitude produced by each concentration of compound was calculated relative to the control current (pre-compound) and expressed as percentage change (% inhibition) for each cell. RGLS4326 was tested in a separate study from all other compounds in Table 6.

[1] = system: KspCre/Pkd1F/RC (Pkd1-F/RC) mice; test: Efficacy in Pkd1-F/RC mouse model of ADPKD; type: in vivo; settings: 20 mg/kg SC on days 8, 10, 12, 15 of age; for Mean BW/KW Ratio / Mean Serum BUN / Mean Serum Creatine: sacrificed at 18 days
Description: Mice were sacrificed at 18 days of age, and kidney weight, body weight, cyst index, serum creatinine level, and blood urea nitrogen (BUN) level were measured. BUN level is a marker of kidney function. A higher BUN level correlates with poorer kidney function, thus a reduction in BUN level is an indicator of reduced kidney injury and damage and improved function. Statistical significance was calculated by one-way ANOVA with Dunnett's multiple correction.

AMPA-R = test: [3H]AMPA radioligand binding assay on rat brain synaptic membranes; settings: for % Inhibition @ Concentration 100 uM: Table 8 (3′-terminal nucleobase/sugar variants); for % Inhibition @ Concentration 0.1 uM: Table 8, 0.1 uM; for % Inhibition @ Concentration 1 uM: Table 8, 1 uM; for % Inhibition @ Concentration 10 uM: Table 8, 10 uM;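 as to all read-outs here: competition binding in which test compounds at rising concentrations displace [3H]AMPA from AMPA-R on rat brain synaptic membranes, with reduced bound radioligand as read-out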
miR-17 [2] = test: miR-17 PD-Sig in human kidney cell lines; type: cell-based
miR-17 [3] = test: microRNA polysome shift assay (miPSA) in kidney of wild type mice; type: in vivo, mouse; parameters: scale not given here; settings: seven days later
Description: In vivo potency was evaluated using the microRNA polysome shift assay (miPSA). This assay was used to determine the extent to which compounds directly engage the miR-17 target in the kidney in normal and PKD mice. The miPSA relies on the principle that active miRNAs bind to their mRNA targets in translationally active high molecular weight (HMW) polysomes, whereas the inhibited miRNAs reside in the low MW (LMW) polysomes. Treatment with anti-miR results in a shift of the microRNA from HMW polysomes to LMW polysomes. Thus, the miPSA provides a direct measurement of microRNA target engagement by a complementary anti-miR (Androsavich et al., Nucleic Acids Research, 2015, 44: e13).
Wild type mice were administered a single dose of 0.3 mg/kg, 3 mg/kg, or 30 mg/kg. Kidney tissue was collected seven days later and subjected to the miPSA. The mean displacement score for each treatment is shown in Table 15 (PBS, n=17; RGLS4326 30 mg/kg, n=10; all other treatments, n=4-5). The tested oligonucleotides displaced miR-17 from translationally active polysome (as measured by miPSA) in normal mouse kidneys.

miR-17 [4] = test: miR-17 luciferase sensor assay in HeLa cells; type: cell-based; settings: for EC50: HeLa cells, 18- to 24-hour transfection
Description: The in vitro potency of certain compounds was evaluated using a miR-17 luciferase sensor assay which uses a luciferase reporter vector for miR-17, with two fully complementary miR-17 binding sites in tandem in the 3′-UTR of the luciferase gene. HeLa cells were co-transfected with the luciferase reporter vector and an exogenous miR-17-expression vector that acted to repress the luciferase signal.

mice = test: High-dose subcutaneous mouse toxicity studies, CNS-related findings; settings: for CNS toxicity in high-dose mouse toxicity studies: single 2000 mg/kg and/or escalating doses 100, 450, 2000 mg/kg, in words
Description: Each compound was tested in a single dose at 2000 mg/kg, and at escalating doses (100, 450, and 2000 mg/kg).

miR-17 [5] = test: miR-17 PD-Sig in mouse kidney cell lines; type: cell-based
Description: The activity of certain compounds was evaluated using a mouse miR-17 Pharmacodynamic-Signature (miR-17 PD-Sig), which consists of the expression of 18 unique miR-17 target genes normalized by six reference housekeeping genes, to provide an unbiased and comprehensive assessment of miR-17 activity. The mouse miR-17 PD-Sig score was the calculated average of the 18 genes' individual log 2 fold changes (normalized by six housekeeping genes) compared to mock transfection (Lee et al., Nat. Commun., 2019, 10, 4148).
The PD-Sig for RGLS4326 in mIMCD3 cells (77.2, indicated by “*”) was not generated in this experiment; the value in Table 14 is that reported by Lee et al., Nat. Commun., 2019, 10, 4148. Blank cells in the table indicate that a compound was not tested in a particular cell line.

AMPA glutamate receptor = test: Patch clamp activity (RGLS4326, off-target follow-up); type: cell-based
Description: To identify potential candidates for off-target pharmacology, a panel of 174 targets including G-protein coupled receptors, transporters, ion channels, nuclear receptors, and cytokine receptors was evaluated in vitro for possible interactions with RGLS4326. […] AMPA receptors are ion channels on excitatory synapses in the CNS that mediate fast excitatory neurotransmission and, therefore, are key components of all neuronal networks. Such an interaction with the AMPA receptor could explain the CNS-mediated findings observed at high doses of RGLS4326 in nonclinical toxicology models.

T1 sequence (P42261 19-906): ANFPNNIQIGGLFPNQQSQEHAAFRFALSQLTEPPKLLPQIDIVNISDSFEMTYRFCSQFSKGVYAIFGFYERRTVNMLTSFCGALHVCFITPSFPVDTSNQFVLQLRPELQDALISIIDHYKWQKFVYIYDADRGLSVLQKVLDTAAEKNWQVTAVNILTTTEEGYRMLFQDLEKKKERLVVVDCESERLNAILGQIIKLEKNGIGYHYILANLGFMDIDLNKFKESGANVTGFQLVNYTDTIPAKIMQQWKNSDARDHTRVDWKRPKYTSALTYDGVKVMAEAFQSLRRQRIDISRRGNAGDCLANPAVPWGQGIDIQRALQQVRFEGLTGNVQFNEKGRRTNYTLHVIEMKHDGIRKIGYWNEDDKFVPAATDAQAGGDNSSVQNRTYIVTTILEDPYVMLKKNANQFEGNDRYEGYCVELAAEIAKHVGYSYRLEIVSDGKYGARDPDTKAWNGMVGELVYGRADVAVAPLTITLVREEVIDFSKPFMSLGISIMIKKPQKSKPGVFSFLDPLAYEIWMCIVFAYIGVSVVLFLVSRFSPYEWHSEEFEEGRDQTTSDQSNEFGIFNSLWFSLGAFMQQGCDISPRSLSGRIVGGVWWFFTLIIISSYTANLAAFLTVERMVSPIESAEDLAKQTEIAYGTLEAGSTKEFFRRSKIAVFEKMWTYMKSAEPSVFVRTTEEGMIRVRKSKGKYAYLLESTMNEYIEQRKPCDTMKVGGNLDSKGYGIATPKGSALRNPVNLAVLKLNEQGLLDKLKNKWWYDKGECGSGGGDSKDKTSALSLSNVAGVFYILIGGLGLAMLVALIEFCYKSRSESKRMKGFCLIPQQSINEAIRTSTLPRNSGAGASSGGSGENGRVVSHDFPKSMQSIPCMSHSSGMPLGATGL
T1 sequence (P48058 21-902): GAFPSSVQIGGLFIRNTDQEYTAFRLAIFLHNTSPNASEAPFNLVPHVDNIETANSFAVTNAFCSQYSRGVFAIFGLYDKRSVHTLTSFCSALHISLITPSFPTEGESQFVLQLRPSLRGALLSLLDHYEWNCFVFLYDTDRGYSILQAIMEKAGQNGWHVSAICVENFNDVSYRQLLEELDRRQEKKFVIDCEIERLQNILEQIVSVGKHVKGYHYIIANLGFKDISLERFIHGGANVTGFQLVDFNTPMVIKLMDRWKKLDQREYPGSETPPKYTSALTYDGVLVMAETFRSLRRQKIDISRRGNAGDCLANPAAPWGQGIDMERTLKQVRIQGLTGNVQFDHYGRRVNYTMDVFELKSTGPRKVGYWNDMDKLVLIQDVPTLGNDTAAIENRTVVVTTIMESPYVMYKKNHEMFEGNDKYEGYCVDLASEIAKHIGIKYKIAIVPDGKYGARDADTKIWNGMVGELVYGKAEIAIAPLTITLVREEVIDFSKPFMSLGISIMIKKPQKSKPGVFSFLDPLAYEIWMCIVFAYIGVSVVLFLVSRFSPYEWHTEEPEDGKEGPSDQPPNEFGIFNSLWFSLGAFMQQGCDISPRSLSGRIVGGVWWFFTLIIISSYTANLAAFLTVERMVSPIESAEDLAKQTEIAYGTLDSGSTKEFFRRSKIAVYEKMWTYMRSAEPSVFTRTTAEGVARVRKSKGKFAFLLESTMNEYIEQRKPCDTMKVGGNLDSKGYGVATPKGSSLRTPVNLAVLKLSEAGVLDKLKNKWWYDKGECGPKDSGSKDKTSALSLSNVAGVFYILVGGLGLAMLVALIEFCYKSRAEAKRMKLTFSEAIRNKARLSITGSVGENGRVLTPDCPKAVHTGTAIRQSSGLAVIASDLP

| Sequence | % Inhibition on membrane currents evoked with 10 uM (s)-AMPA (Mean ± SD) (AMPA-R (GluA1/GluA4); 0.3 uM compound) [%] | % Inhibition on membrane currents evoked with 10 uM (s)-AMPA (Mean ± SD) (AMPA-R (GluA1/GluA4); 3 uM compound) [%] | BW/KW Ratio, Mean Difference vs. PBS [1] | Serum BUN, Mean Difference vs. PBS [1] | Serum Creatine, Mean Difference vs. PBS [1] | Mean BW/KW Ratio [1] | Mean Serum BUN [1] | Mean Serum Creatine [1] | IC50 (AMPA-R; Experiment #2) [nM] | % Inhibition @ 0.1 uM (AMPA-R; Experiment #2, 0.1 uM) [%] | % Inhibition @ 1 uM (AMPA-R; Experiment #2, 1 uM) [%] | % Inhibition @ 10 uM (AMPA-R; Experiment #2, 10 uM) [%] | % Inhibition @ 100 uM (AMPA-R; Experiment #2, 100 uM) [%] | IC50 (AMPA-R; Table 8) [nM] | % Inhibition @ Concentration 100 uM (AMPA-R) [%] | % Inhibition @ Concentration 0.1 uM (AMPA-R) [%] | % Inhibition @ Concentration 1 uM (AMPA-R) [%] | % Inhibition @ Concentration 10 uM (AMPA-R) [%] | EC50 (miR-17 [2]; HK-2, human, Normal) [nM] | EC50 (miR-17 [2]; WT9-7, human, PKD) [nM] | also measured |
| --- | --- | --- | --- | --- | --- | --- | --- | --- | --- | --- | --- | --- | --- | --- | --- | --- | --- | --- | --- | --- | --- |
| ASGSCMAFCFUFUMUSAS [RG-NG-1015] | 16.0 ± 5.0 | 39.5 ± 5.4 | −48.79 | −20.21 | −0.034 | 16.83 | 22.26 | 0.1279 | > 100000 | 2.3 | 11 | 6.5 | 19.9 | ≥ 100000 | 5.6 | −0.8 | −10.3 | −7 | 55.6 | 21.2 | functional antagonism towards AMPA-R relative to RGLS4326 (AMPA-R (GluA1/GluA4); in words): reduced functional antagonism towards AMPA-R; miPSA Displacement Score, Mean (miR-17 [3]; single dose 3 mg/kg): 2.562; miPSA Displacement Score, Mean (miR-17 [3]; single dose 30 mg/kg): 2.718; miPSA Displacement Score, Mean (miR-17 [3]; single dose 0.3 m/kg): 2.238; Log2FC (37.5 nM) (miR-17 [4]): 2.51; EC50 (miR-17 [4]): 22.4 nM; CNS-related findings noted (mice; SC 2000 mg/kg, Single): No; CNS-related findings noted (mice; SC 100, 450, 2000 mg/kg/dose, QDx4): No; CNS toxicity in high-dose mouse toxicity studies (mice): no CNS-toxicity were observed; EC50 (miR-17 [5]; D52B5, mouse, PKD): 82.4 nM; EC50 (miR-17 [5]; mIMCD3, mouse, Normal): 168 nM |
| ASGSCMAFCFUFUMUSGS [RGLS4326, reference compound] | 46.9 ± 9.8 | 87.4 ± 7.9 | −48.8 | −20.06 | −0.03463 | 16.81 | 22.41 | 0.1273 | 270 | 31.5 | 73.1 | 93.6 | 96.8 | 1610 | 99.7 | −0.1 | 40.8 | 83.5 | 47.8 | 17.3 | IC50 (AMPA-R; Experiment #1): 700 nM; % Inhibition @ 0.1 uM (AMPA-R; Experiment #1, 0.1 uM): 17.6%; % Inhibition @ 1 uM (AMPA-R; Experiment #1, 1 uM): 55.5%; % Inhibition @ 10 uM (AMPA-R; Experiment #1, 10 uM): 93%; % Inhibition @ 100 uM (AMPA-R; Experiment #1, 100 uM): 104.1%; IC50 (AMPA-R; Experiment #3): 780 nM; % Inhibition @ 0.1 uM (AMPA-R; Experiment #3, 0.1 uM): 14.6%; % Inhibition @ 1 uM (AMPA-R; Experiment #3, 1 uM): 55.8%; % Inhibition @ 10 uM (AMPA-R; Experiment #3, 10 uM): 89%; % Inhibition @ 100 uM (AMPA-R; Experiment #3, 100 uM): 97.2%; miPSA Displacement Score, Mean (miR-17 [3]; single dose 3 mg/kg): 2.247; miPSA Displacement Score, Mean (miR-17 [3]; single dose 30 mg/kg): 2.362; miPSA Displacement Score, Mean (miR-17 [3]; single dose 0.3 m/kg): 1.846; Log2FC (37.5 nM) (miR-17 [4]): 2.70; EC50 (miR-17 [4]): 18.5 nM; CNS toxicity in high-dose mouse toxicity studies (mice): ataxia, lethargy, and in the case of RGLS4326, unconsciousness at the highest dose; functional IC50 based on patch clamp activity (AMPA glutamate receptor): 0.9 to 1.8 µg/mL; IC50 (AMPA glutamate receptor; read-out: functional IC50 based on patch clamp activity): 300 to 600 nM; EC50 (miR-17 [5]; D52B5, mouse, PKD): 92.8 nM |
